The record followed here is ChEMBL document CHEMBL2413056, “Adipogenetic effects of retrofractamide A derivatives in 3T3-L1 cells” (Bioorg Med Chem Lett, 2013).

Activity calls are given as the source filed them. The rule behind the calls is not given here.

A short description of series [1]: Cytotoxicity against mouse 3T3L1 cells assessed as cell viability at 3 uM by CCK8 assay relative to control. Type of series: cell-based. The settings on record: 3T3-L1 cells, read-out: Activity.
A short description of series [2]: Cytotoxicity against mouse 3T3L1 cells assessed as cell viability at 30 uM by CCK8 assay relative to control. Type of series: cell-based. The settings on record: 3T3-L1 cells, read-out: Activity.
Series [3] is described as follows: Cytotoxicity against mouse 3T3L1 cells assessed as cell viability at 0.3 uM by CCK8 assay relative to control. The class given is cell-based. The settings on record: 3T3-L1 cells, read-out: Activity.
The nature of series [4]: Cytotoxicity against mouse 3T3L1 cells assessed as cell viability at 1 uM by CCK8 assay relative to control. Type of series: cell-based. The settings on record: 3T3-L1 cells, read-out: Activity.
The test system of series [5] is 3T3-L1. The experiment in a line: Adipogenetic activity in mouse 3T3L1 cells assessed as increase in triglyceride level at 30 uM relative to control. The class given is functional.
For series [6], the system named is 3T3-L1. Description: Adipogenetic activity in mouse 3T3L1 cells assessed as increase in triglyceride level at 10 uM relative to control. Type of series: functional.
A short description of series [7]: Cytotoxicity against mouse 3T3L1 cells assessed as cell viability at 10 uM by CCK8 assay relative to control. The class given is cell-based. The settings on record: 3T3-L1 cells, read-out: Activity.
The subject of series [8] is 3T3-L1. Description: Increase of C/EBPalpha mRNA expression in mouse 3T3L1 cells at 3 uM by RT-PCR analysis relative to beta-actin mRNA level. The class given is functional.
Series [9] relates to 3T3-L1. Description: Increase of C/EBPbeta mRNA expression in mouse 3T3L1 cells at 10 uM by RT-PCR analysis relative to beta-actin mRNA level. The class given is functional.
In series [10] the test system is 3T3-L1. Description: Increase of GLUT4 mRNA expression in mouse 3T3L1 cells at 10 uM by RT-PCR analysis relative to beta-actin mRNA level. The class given is functional.
In series [11] the test system is 3T3-L1. Description: Increase of C/EBPbeta mRNA expression in mouse 3T3L1 cells at 30 uM by RT-PCR analysis relative to beta-actin mRNA level. Type of series: functional.
In series [12] the test system is 3T3-L1. The experiment in a line: Increase of C/EBPalpha mRNA expression in mouse 3T3L1 cells at 10 uM by RT-PCR analysis relative to beta-actin mRNA level. Type of series: functional.
Series [13] deals with 3T3-L1. Description: Increase of 2-deoxyglucose uptake in mouse 3T3L1 cells using 2-deoxy-D-(2,6-3H)-glucose after 2 hrs by liquid scintillation counting. The class given is functional, cell-based.
Series [14] concerns 3T3-L1. The experiment in a line: Increase of aP2 mRNA expression in mouse 3T3L1 cells at 10 uM by RT-PCR analysis relative to beta-actin mRNA level. Type of series: functional.
Series [15] concerns 3T3-L1. The experiment in a line: Increase of GLUT4 mRNA expression in mouse 3T3L1 cells at 30 uM by RT-PCR analysis relative to beta-actin mRNA level. The class given is functional.
The subject of series [16] is 3T3-L1. Description: Increase of C/EBPalpha mRNA expression in mouse 3T3L1 cells at 30 uM by RT-PCR analysis relative to beta-actin mRNA level. The class given is functional.
Series [17] has as its system 3T3-L1. The experiment in a line: Increase of adiponectin mRNA expression in mouse 3T3L1 cells at 30 uM by RT-PCR analysis relative to beta-actin mRNA level. The class given is functional.
Series [18] has as its system 3T3-L1. Description: Increase of PPARgamma2 mRNA expression in mouse 3T3L1 cells at 10 uM by RT-PCR analysis relative to beta-actin mRNA level. Type of series: functional.
Series [19] relates to 3T3-L1. Description: Increase of C/EBPdelta mRNA expression in mouse 3T3L1 cells at 10 uM by RT-PCR analysis relative to beta-actin mRNA level. The class given is functional.
Series [20] relates to 3T3-L1. The experiment in a line: Increase of PPARgamma2 mRNA expression in mouse 3T3L1 cells at 3 uM by RT-PCR analysis relative to beta-actin mRNA level. Type of series: functional.
In series [21] the test system is 3T3-L1. Description: Increase of C/EBPdelta mRNA expression in mouse 3T3L1 cells at 30 uM by RT-PCR analysis relative to beta-actin mRNA level. The class given is functional.
Series [22] relates to 3T3-L1. Description: Increase of GLUT4 mRNA expression in mouse 3T3L1 cells at 3 uM by RT-PCR analysis relative to beta-actin mRNA level. Type of series: functional.
For series [23], the system named is 3T3-L1. Description: Increase of PPARgamma2 mRNA expression in mouse 3T3L1 cells at 30 uM by RT-PCR analysis relative to beta-actin mRNA level. The class given is functional.
In series [24] the target is T1, Peroxisome proliferator-activated receptor gamma (Homo sapiens) (UniProt P37231).
T1 sequence (whole entry): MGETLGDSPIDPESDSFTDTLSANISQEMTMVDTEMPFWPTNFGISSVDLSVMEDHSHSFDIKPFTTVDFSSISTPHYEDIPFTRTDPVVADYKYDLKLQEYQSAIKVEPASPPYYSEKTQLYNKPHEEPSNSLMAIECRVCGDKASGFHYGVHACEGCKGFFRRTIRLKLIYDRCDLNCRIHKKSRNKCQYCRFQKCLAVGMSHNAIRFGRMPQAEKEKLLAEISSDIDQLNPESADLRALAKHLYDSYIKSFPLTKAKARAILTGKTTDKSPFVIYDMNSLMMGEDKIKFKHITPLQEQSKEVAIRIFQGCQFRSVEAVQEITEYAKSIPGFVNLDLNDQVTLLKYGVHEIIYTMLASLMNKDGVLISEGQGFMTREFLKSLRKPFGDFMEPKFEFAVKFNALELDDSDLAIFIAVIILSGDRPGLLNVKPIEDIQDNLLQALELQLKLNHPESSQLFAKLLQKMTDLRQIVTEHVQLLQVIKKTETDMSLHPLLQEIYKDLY
Description: Agonist activity at PPARgamma (unknown origin) at 0.01 to 100 uM by nuclear receptor cofactor assay.

In series [25] the test system is 3T3-L1. The experiment in a line: Increase of aP2 mRNA expression in mouse 3T3L1 cells at 3 uM by RT-PCR analysis relative to beta-actin mRNA level. The class given is functional.
Series [26] deals with 3T3-L1. The experiment in a line: Increase of adiponectin mRNA expression in mouse 3T3L1 cells at 3 uM by RT-PCR analysis relative to beta-actin mRNA level. The class given is functional.
Series [27] deals with 3T3-L1. The experiment in a line: Increase of adiponectin mRNA expression in mouse 3T3L1 cells at 10 uM by RT-PCR analysis relative to beta-actin mRNA level. Type of series: functional.
Series [28] has as its system 3T3-L1. The experiment in a line: Increase of C/EBPbeta mRNA expression in mouse 3T3L1 cells at 3 uM by RT-PCR analysis relative to beta-actin mRNA level. The class given is functional.
Series [29] deals with 3T3-L1. Description: Increase of aP2 mRNA expression in mouse 3T3L1 cells at 30 uM by RT-PCR analysis relative to beta-actin mRNA level. The class given is functional.
In series [30] the test system is 3T3-L1. Description: Increase of C/EBPdelta mRNA expression in mouse 3T3L1 cells at 3 uM by RT-PCR analysis relative to beta-actin mRNA level. Type of series: functional.
For series [31], the system named is 3T3-L1. The experiment in a line: Increase of 2-deoxyglucose uptake in mouse 3T3L1 cells using 2-deoxy-D-(2,6-3H)-glucose at 1 uM after 2 hrs by liquid scintillation counting. Type of series: functional, cell-based.

In the case of `CC(C)NC(=O)/C=C/C=C/CC/C=C/c1ccc2c(c1)OCO2`, the viability at 3 µM in series [1] stood at 96.6%. The viability at 30 µM in series [2] stood at 102%. In addition, the viability at 0.3 µM in series [3] stood at 95%. Besides, the viability at 1 µM in series [4] stood at 94.8%. Further, the Activity in the series with 3T3-L1 [5] came to 43.1%; in the series on 3T3-L1 [6], 39.4%. In series [7], the viability at 10 µM worked out at 96.1%.

Take `CC(C)CNC(=O)CCCCCCCCc1ccc2c(c1)OCO2`: the viability at 3 µM in series [1] was 104%. Also, the viability at 30 µM in series [2] came to 109%. Moreover, the viability at 0.3 µM in series [3] turned out to be 99.3%. In [4], the viability at 1 µM turned out to be 105%. In addition, the Activity stood at 31.9% with 3T3-L1 [5] and 13.3% with 3T3-L1 [6]. Moreover, in series [7], the viability at 10 µM was 111%.

In the case of `O=C(/C=C/C=C/CC/C=C/c1ccc2c(c1)OCO2)N1CCCCC1` [DEHYDROPIPERNOLINE], the Activity with 3T3-L1 [6] is on record as 21.6%.

On to `CCCNC(=O)/C=C/C=C/CC/C=C/c1ccc2c(c1)OCO2`, for which the viability at 3 µM in series [1] turned out to be 102%. The viability at 30 µM in series [2] stood at 68.4%. Also, in series [3], the viability at 0.3 µM worked out at 101%. For the same molecule, in series [4], the viability at 1 µM was 104%. Moreover, the Activity was 18.7% in the series with 3T3-L1 [5] and 42.7% in the series with 3T3-L1 [6]. Further, the viability at 10 µM in [7] worked out at 87.5%.

For `CCCCCNC(=O)/C=C/C=C/CC/C=C/c1ccc2c(c1)OCO2`, the viability at 3 µM in series [1] was 105%. In addition, the Ratio was found to be 0.81 in the series on 3T3-L1 [8]; 1.6 in the series with 3T3-L1 [9]; 3.89 in the series on 3T3-L1 [10]; 2.91 in the series on 3T3-L1 [11]; 1.27 with 3T3-L1 [12]; 3.18 in the series on 3T3-L1 [14]. The Ratio is recorded as 4.22 with 3T3-L1 [15]; 4.91 in the series on 3T3-L1 [16]; 2.16 in the series with 3T3-L1 [17]; 1.76 in the series on 3T3-L1 [18]; 1.5 in the series with 3T3-L1 [19]; 0.88 with 3T3-L1 [20]. The Ratio in the series on 3T3-L1 [21] worked out at 2.64; in the series with 3T3-L1 [22], 1.55; in the series with 3T3-L1 [23], 2.57; in the series with 3T3-L1 [25], 0.86; in the series with 3T3-L1 [26] it was 1.04; in the series on 3T3-L1 [27], 1.3. The Ratio in the series with 3T3-L1 [28] was found to be 0.98; in the series with 3T3-L1 [29] it was 3.09; in the series with 3T3-L1 [30] it was 0.79. In addition, the viability at 30 µM in series [2] amounted to 107%. The Activity entry was “Dose-dependent effect” with 3T3-L1 [13], 58.8% with 3T3-L1 [5] and 55.4% with 3T3-L1 [6]. In series [3], the viability at 0.3 µM was 98.7%. For the same molecule, the viability at 1 µM in [4] worked out at 102%. For the same molecule, the result in series [24] was Active. The viability at 10 µM in series [7] amounted to 99%.

`CC(C)CNC(=O)/C=C/C=C/CC/C=C/c1ccc2c(c1)OCO2` [RETROFRACTAMIDE A]: the viability at 3 µM in [1] came out at 109%. Besides, the viability at 30 µM in series [2] stood at 109%. Also, the viability at 0.3 µM in [3] was found to be 100%. Besides, in series [4], the viability at 1 µM stood at 98.1%. Besides, the Activity in the series on 3T3-L1 [5] came to 22.9%; in the series on 3T3-L1 [6], 38%. The viability at 10 µM in series [7] came to 108%.

On to `CCCCNC(=O)/C=C/C=C/CC/C=C/c1ccc2c(c1)OCO2`, for which the viability at 3 µM in series [1] amounted to 87.1%. In series [2], the viability at 30 µM turned out to be 78.7%. For the same molecule, the viability at 0.3 µM in series [3] was found to be 96.2%. The viability at 1 µM in [4] came to 94.8%. Besides, the Activity with 3T3-L1 [5] is 46.2%; in the series on 3T3-L1 [6], 55.9%. The viability at 10 µM in [7] turned out to be 69.3%.

Consider `CC(C)COC(=O)/C=C/C=C/CC/C=C/c1ccc2c(c1)OCO2`, for which the viability at 30 µM in series [2] turned out to be 21.7%. Moreover, the Activity with 3T3-L1 [5] is 21.7%; in the series on 3T3-L1 [6], 20%.

As for `Cc1c(C)c2c(c(C)c1O)CCC(C)(COc1ccc(CC3SC(=O)NC3=O)cc1)O2` (stereo not drawn), the result in the series with 3T3-L1 [31] was Active.

For `COC(=O)/C=C/C=C/CC/C=C/c1ccc2c(c1)OCO2`, the Activity with 3T3-L1 [5] was determined as 4%; in the series with 3T3-L1 [6], 4.6%.

Turning to `OC/C=C/C=C/CC/C=C/c1ccc2c(c1)OCO2`, in the series on 3T3-L1 [6], the Activity was 0.6%.
